Reference: patent publication US20240116985A1, “STAPLED PEPTIDES AND METHODS THEREOF” (priority 2020, published 2024)

Molecular target: T1, full-length beta-Catenin (Uniprot ID P35222) (Homo sapiens, UniProt P35222)
T1 construct: 10 nM full-length beta-Catenin (Uniprot ID P35222)
T1 sequence (P35222 1-781): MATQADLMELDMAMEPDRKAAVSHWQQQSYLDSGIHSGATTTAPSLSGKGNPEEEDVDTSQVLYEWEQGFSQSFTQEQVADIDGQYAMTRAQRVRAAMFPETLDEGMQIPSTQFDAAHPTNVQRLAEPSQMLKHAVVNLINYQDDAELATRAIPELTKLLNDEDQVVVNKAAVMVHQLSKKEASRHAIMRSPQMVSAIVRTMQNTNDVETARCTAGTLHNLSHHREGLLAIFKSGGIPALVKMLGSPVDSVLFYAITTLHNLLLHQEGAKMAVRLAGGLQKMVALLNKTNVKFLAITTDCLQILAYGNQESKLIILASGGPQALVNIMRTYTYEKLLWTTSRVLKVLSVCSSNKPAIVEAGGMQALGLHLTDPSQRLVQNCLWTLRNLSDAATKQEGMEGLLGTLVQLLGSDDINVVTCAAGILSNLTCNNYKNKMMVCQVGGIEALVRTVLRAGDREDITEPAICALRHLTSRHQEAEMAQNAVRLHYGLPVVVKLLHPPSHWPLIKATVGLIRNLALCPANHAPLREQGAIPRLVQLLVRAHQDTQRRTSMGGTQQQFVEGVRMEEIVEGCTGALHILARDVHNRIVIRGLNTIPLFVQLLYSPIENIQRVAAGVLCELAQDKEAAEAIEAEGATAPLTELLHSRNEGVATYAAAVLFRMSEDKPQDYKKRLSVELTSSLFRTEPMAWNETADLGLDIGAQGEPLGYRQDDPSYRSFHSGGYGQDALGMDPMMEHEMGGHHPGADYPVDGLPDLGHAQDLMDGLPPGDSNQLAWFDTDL
Experiment: Fluorescence polarization IC50 (beta-catenin / 5FAM-TCF4 10-53 competition)
Assay type: binding
Conditions: fluorescence polarization; read-out: beta-Catenin FP IC50

SMILES | IC50 [nM]
CC(=O)N1CCC[C@]12CCCCCCC1(CCCCCCCCOC(=O)N3CC[C@@](C(=O)N[C@@H](Cc4ccsc4)C(=O)N[C@@H](Cc4csc5ccccc45)C(=O)N[C@@H](CC(C)C)C(N)=O)(C3)NC(=O)[C@H](CC(C)C)NC(=O)[C@H](Cc3ccccc3)NC(=O)[C@H](C)NC(=O)[C@H](C)NC(=O)[C@H](CN(CC(=O)O)CC(F)(F)F)NC(=O)[C@H](CC(=O)O)NC1=O)NC(=O)[C@H](CC(C)(C)C)NC(=O)[C@H](CC(=O)O)NC2=O (stereo partly drawn) [I-1753, Ac-PL3-Asp-Npg-B5-Asp-TfeGA-Ala-Ala-Phe-Leu-PyrS2-3Thi-BztA-Leu-NH2] | 802
CC(=O)N1CCC[C@]12CCCCCCC1(CCCCCCCCOC(=O)N3CC[C@@](C(=O)N[C@@H](Cc4ccsc4)C(=O)N[C@@H](Cc4csc5ccccc45)C(=O)N[C@@H](CC(C)C)C(N)=O)(C3)NC(=O)[C@H]([C@@H](C)O)NC(=O)[C@H](Cc3ccccc3)NC(=O)[C@H](C)NC(=O)[C@H](C)NC(=O)[C@H](CN(CC(=O)O)CC(F)(F)F)NC(=O)[C@H](CC(=O)O)NC1=O)NC(=O)[C@H](CC(C)(C)C)NC(=O)[C@H](CC(=O)O)NC2=O (stereo partly drawn) [I-1754, Ac-PL3-Asp-Npg-B5-Asp-TfeGA-Ala-Ala-Phe-Thr-PyrS2-3Thi-BztA-Leu-NH2] | 660
CC(=O)N1CCC[C@]12CCCCCCC1(CCCCCCCCOC(=O)N3CC[C@@](C(=O)N[C@@H](Cc4ccsc4)C(=O)N[C@@H](Cc4csc5ccccc45)C(=O)N[C@@H](Cc4ccccc4)C(N)=O)(C3)NC(=O)[C@H](CC(C)C)NC(=O)[C@H](Cc3ccccc3)NC(=O)[C@H](C)NC(=O)[C@H](C)NC(=O)[C@H](CN(CC(=O)O)CC(F)(F)F)NC(=O)[C@H](CC(=O)O)NC1=O)NC(=O)[C@H](CC(C)(C)C)NC(=O)[C@H](CC(=O)O)NC2=O (stereo partly drawn) [I-1755, Ac-PL3-Asp-Npg-B5-Asp-TfeGA-Ala-Ala-Phe-Leu-PyrS2-3Thi-BztA-Phe-NH2] | 570
CC(=O)N1CCC[C@]12CCCCCCC1(CCCCCCCCOC(=O)N3CC[C@@](C(=O)N[C@@H](Cc4ccsc4)C(=O)N[C@@H](Cc4csc5ccccc45)C(=O)N[C@@H](Cc4ccccc4)C(N)=O)(C3)NC(=O)[C@H]([C@@H](C)O)NC(=O)[C@H](Cc3ccccc3)NC(=O)[C@H](C)NC(=O)[C@H](C)NC(=O)[C@H](CN(CC(=O)O)CC(F)(F)F)NC(=O)[C@H](CC(=O)O)NC1=O)NC(=O)[C@H](CC(C)(C)C)NC(=O)[C@H](CC(=O)O)NC2=O (stereo partly drawn) [I-1756, Ac-PL3-Asp-Npg-B5-Asp-TfeGA-Ala-Ala-Phe-Thr-PyrS2-3Thi-BztA-Phe-NH2] | 329
CC(=O)N1CCC[C@]12CCCCCCC1(CCCCCCCCOC(=O)N3CC[C@@](C(=O)N[C@@H](Cc4ccsc4)C(=O)N[C@@H](Cc4csc5ccccc45)C(=O)N[C@H](C(N)=O)C(C)C)(C3)NC(=O)[C@H](CC(C)C)NC(=O)[C@H](Cc3ccccc3)NC(=O)[C@H](C)NC(=O)[C@H](C)NC(=O)[C@H](CN(CC(=O)O)CC(F)(F)F)NC(=O)[C@H](CC(=O)O)NC1=O)NC(=O)[C@H](CC(C)(C)C)NC(=O)[C@H](CC(=O)O)NC2=O (stereo partly drawn) [I-1757, Ac-PL3-Asp-Npg-B5-Asp-TfeGA-Ala-Ala-Phe-Leu-PyrS2-3Thi-BztA-Val-NH2] | 449
CC(=O)N1CCC[C@]12CCCCCCC1(CCCCCCCCOC(=O)N3CC[C@@](C(=O)N[C@@H](Cc4ccsc4)C(=O)N[C@@H](Cc4csc5ccccc45)C(=O)N[C@@H](CC(C)C)C(N)=O)(C3)NC(=O)[C@H](CC(C)C)NC(=O)[C@H](Cc3ccccc3)NC(=O)[C@H](C)NC(=O)[C@H](CCCCNC(C)C)NC(=O)[C@H](CN(CC(=O)O)CC(F)(F)F)NC(=O)[C@H](CC(=O)O)NC1=O)NC(=O)[C@H](CC(C)(C)C)NC(=O)[C@H](CC(=O)O)NC2=O (stereo partly drawn) [I-1765, Ac-PL3-Asp-Npg-B5-Asp-TfeGA-iPrLys-Ala-Phe-Leu-PyrS2-3Thi-BztA-Leu-NH2] | 667
CC(=O)N1CCC[C@]12CCCCCCC1(CCCCCCCCOC(=O)N3CC[C@@](C(=O)N[C@@H](Cc4ccsc4)C(=O)N[C@@H](Cc4csc5ccccc45)C(=O)N[C@@H](Cc4ccccc4)C(N)=O)(C3)NC(=O)[C@H](CC(C)C)NC(=O)[C@H](Cc3ccccc3)NC(=O)[C@H](C)NC(=O)[C@H](CCCCNC(C)C)NC(=O)[C@H](CN(CC(=O)O)CC(F)(F)F)NC(=O)[C@H](CC(=O)O)NC1=O)NC(=O)[C@H](CC(C)(C)C)NC(=O)[C@H](CC(=O)O)NC2=O (stereo partly drawn) [I-1767, Ac-PL3-Asp-Npg-B5-Asp-TfeGA-iPrLys-Ala-Phe-Leu-PyrS2-3Thi-BztA-Phe-NH2] | 327
CC(=O)N1CCC[C@]12CCCCCCC1(CCCCCCCCOC(=O)N3CC[C@@](C(=O)N[C@@H](Cc4ccsc4)C(=O)N[C@@H](Cc4csc5ccccc45)C(=O)N[C@H](C(N)=O)C(C)C)(C3)NC(=O)[C@H](CC(C)C)NC(=O)[C@H](Cc3ccccc3)NC(=O)[C@H](C)NC(=O)[C@H](CCCCNC(C)C)NC(=O)[C@H](CN(CC(=O)O)CC(F)(F)F)NC(=O)[C@H](CC(=O)O)NC1=O)NC(=O)[C@H](CC(C)(C)C)NC(=O)[C@H](CC(=O)O)NC2=O (stereo partly drawn) [I-1769, Ac-PL3-Asp-Npg-B5-Asp-TfeGA-iPrLys-Ala-Phe-Leu-PyrS2-3Thi-BztA-Val-NH2] | 419

Now those with a lower IC50, led by results:

IC50 [nM] | SMILES
267 | CC(=O)N1CCC[C@]12CCCCCCC1(CCCCCCCCOC(=O)N3CC[C@@](C(=O)N[C@@H](Cc4ccsc4)C(=O)N[C@@H](Cc4csc5ccccc45)C(=O)N[C@@H](CC(C)C)C(N)=O)(C3)NC(=O)[C@H]([C@@H](C)O)NC(=O)[C@H](Cc3ccccc3)NC(=O)[C@H](C)NC(=O)[C@H](CCCCNC(C)C)NC(=O)[C@H](CN(CC(=O)O)CC(F)(F)F)NC(=O)[C@H](CC(=O)O)NC1=O)NC(=O)[C@H](CC(C)(C)C)NC(=O)[C@H](CC(=O)O)NC2=O (stereo partly drawn) [I-1766, Ac-PL3-Asp-Npg-B5-Asp-TfeGA-iPrLys-Ala-Phe-Thr-PyrS2-3Thi-BztA-Leu-NH2]
235 | CC(=O)N1CCC[C@]12CCCCCCC1(CCCCCCCCOC(=O)N3CC[C@@](C(=O)N[C@@H](Cc4ccsc4)C(=O)N[C@@H](Cc4csc5ccccc45)C(=O)N[C@H](C(N)=O)C(C)C)(C3)NC(=O)[C@H]([C@@H](C)O)NC(=O)[C@H](Cc3ccccc3)NC(=O)[C@H](C)NC(=O)[C@H](C)NC(=O)[C@H](CN(CC(=O)O)CC(F)(F)F)NC(=O)[C@H](CC(=O)O)NC1=O)NC(=O)[C@H](CC(C)(C)C)NC(=O)[C@H](CC(=O)O)NC2=O (stereo partly drawn) [I-1758, Ac-PL3-Asp-Npg-B5-Asp-TfeGA-Ala-Ala-Phe-Thr-PyrS2-3Thi-BztA-Val-NH2]
209 | CC(=O)N1CCC[C@]12CC=CCCCC1(CCCC=CCCCOC(=O)N3CC[C@@](C(=O)N[C@@H](Cc4ccsc4)C(=O)N[C@@H](Cc4csc5ccccc45)C(=O)N[C@@H](CCC(N)=O)C(N)=O)(C3)NC(=O)[C@H](CC(C)C)NC(=O)[C@H](Cc3ccccc3)NC(=O)[C@H](C)NC(=O)[C@H](C)NC(=O)[C@H](CN(CC(=O)O)CC(F)(F)F)NC(=O)[C@H](C(C)(C)C(=O)O)NC1=O)NC(=O)[C@H](CC(C)(C)C)NC(=O)[C@H](CC(=O)O)NC2=O (stereo partly drawn) [I-1771, Ac-PL3-Asp-Npg-B5-bMe2Asp-TfeGA-Ala-Ala-Phe-Leu-PyrS2-3Thi-BztA-Gln-NH2]
145 | CC(=O)N1CCC[C@]12CC=CCCCC1(CCCC=CCCCOC(=O)N3CC[C@@](C(=O)N[C@@H](Cc4ccsc4)C(=O)N[C@@H](Cc4csc5ccccc45)C(=O)N[C@@H](Cc4ccccc4)C(N)=O)(C3)NC(=O)[C@H](CC(C)C)NC(=O)[C@H](Cc3ccccc3)NC(=O)[C@H](C)NC(=O)[C@H](C)NC(=O)[C@H](CN(CC(=O)O)CC(F)(F)F)NC(=O)[C@H](CC(=O)O)NC1=O)NC(=O)[C@H](CC(C)(C)C)NC(=O)[C@H](CC(=O)O)NC2=O (stereo partly drawn) [I-1749, Ac-PL3-Asp-Npg-B5-Asp-TfeGA-Ala-Ala-Phe-Leu-PyrS2-3Thi-BztA-Phe-NH2]
104 | CC(=O)N1CCC[C@]12CC=CCCCC1(CCCC=CCCCOC(=O)N3CC[C@@](C(=O)N[C@@H](Cc4ccsc4)C(=O)N[C@@H](Cc4csc5ccccc45)C(=O)N[C@H](C(N)=O)C(C)C)(C3)NC(=O)[C@H](CC(C)C)NC(=O)[C@H](Cc3ccccc3)NC(=O)[C@H](C)NC(=O)[C@H](C)NC(=O)[C@H](CN(CC(=O)O)CC(F)(F)F)NC(=O)[C@H](CC(=O)O)NC1=O)NC(=O)[C@H](CC(C)(C)C)NC(=O)[C@H](CC(=O)O)NC2=O (stereo partly drawn) [I-1751, Ac-PL3-Asp-Npg-B5-Asp-TfeGA-Ala-Ala-Phe-Leu-PyrS2-3Thi-BztA-Val-NH2]
87 | CC(=O)N1CCC[C@]12CC=CCCCC1(CCCC=CCCCOC(=O)N3CC[C@@](C(=O)N[C@@H](Cc4ccsc4)C(=O)N[C@@H](Cc4csc5ccccc45)C(=O)N[C@H](C(N)=O)C(C)C)(C3)NC(=O)[C@H](CC(C)C)NC(=O)[C@H](Cc3ccccc3)NC(=O)[C@H](C)NC(=O)[C@H](C)NC(=O)[C@H](CN(CC(=O)O)CC(F)(F)F)NC(=O)[C@H](CC(=O)O)NC1=O)NC(=O)[C@H](CC(C)(C)C)NC(=O)[C@H](CC(=O)O)NC2=O (stereo partly drawn) [I-1752, Ac-PL3-Asp-Npg-B5-Asp-TfeGA-Ala-Ala-Phe-Leu-PyrS2-3Thi-BztA-Val-NH2]
